In patent US4120951A, “Polypeptide hormones of the thymus” (Sloan-Kettering Institute for Cancer Research, priority 1977, dated 1978):
Ends that are not written are not given here.

Legend:
[1] = tested on: neuromuscular transmission; assay: Electromyographic assay of neuromuscular transmission in mice after intraperitoneal injection; assay type: in vivo; conditions: for activity of the isolated fraction in producing neuromuscular block: QAE-Sephadex fractions, FIG. 3; for therapeutically effective amount: at least about; for dose producing a statistically significant (P < 0.001) decrement in the electromyographic response: 5 days after dose, supramaximal nerve stimulation 50 impulses per second; for mean decrement: height of tenth muscle action potential as % of the first: 5 days after doses above threshold, controls 94 ± 2%; for dose range at which active: test not stated
Protocol: To determine the neuromuscular action of Thymin I and Thymin II, the electromyographic response of mice 5 days after various doses of Thymin I or Thymin II is summarized in FIG. 4. Bovine serum albumin (0.5 mg/ml, 0.9% saline) was used as a protein stabilizer and controls were injected with the solvent alone.
In 15 control mice sampled at 75 sites the height of the tenth muscle action potential was 94 ± 2% (mean ± s.e.m.) of the height of the first. The mean values and s.e.m. (vertical bars) are shown for groups of 4-10 mice given various doses of Thymin I(o) and Thymin II (.quadrature.). Statistical significances of differences from the controls were calculated by Student's t-test and are shown by solid symbols (P < 0.001 ), half solid symbols (0.05 > P < 0.001) and open symbols (P > 0.05).
Mice were given 100 ng of Thymin I or solvent and five mice from each group were tested at various times. With supramaximal nerve stimulation at 50 impulses per second the height of the tenth muscle action potential was expressed as a percentage of the first. This change was calculated for five points in each of five to ten mice from each group. For each time point the change in Thymin-treated mice was expressed as a percentage of the change in solvent-treated control mice and the statistical significance of the difference was assessed by Student's t-test. A statistically significant (P < 0.001) abnormality in the electromyogram was first evident at 18 hours, was maximal at 24 hours and persisted through 5 days.
To make the determinations described in FIGS. 4 and 5, extracts were injected into test animals and neuromuscular transmission was studied after an interval of one to five days. Initial 100 g guinea pigs were injected intraperitoneally; neuromuscular transmission was studied in vitro with a preparation of the phrenic nerve and hemidiaphragm. Subsequently, 200 g rats were used; fractions were injected subcutaneously and neuromuscular transmission was assessed electromyographically. […] Female Swiss-Webster mice weighing 25-35 g were injected intraperitoneally, groups of five to ten mice being used to test each fraction. The animals were anesthetized with urethane and electromyography was performed as described. The muscle action potentials were recorded in each mouse following supramaximal nerve stimulation with 10 impulses at a rate of 50 per second. Five sites were sampled in each mouse and for each group of mice the mean standard deviation and s.e.m. were calculated for the change in the height of the muscle action, potential being expressed as a percentage of the height of the first impulse.
The statistical significance of differences found were assessed by student's t-test.

mouse bone marrow cells = assay: Cytotoxic inhibition test for induction of TL and Thy-1 antigens; assay type: cell-based; conditions: for absorption of antibodies directed against TL or Thy-1 by treated cells: unfractionated bone marrow cells, 100 ng/ml, 18 hours
Protocol: Thymin I and Thymin II were isolated from bovine thymus as described. Each was dissolved in phosphate buffered saline (containing 1 mg/ml of bovine serum albumen to minimize adsorbtive losses), distributed into 2 μg lots and lyophilized. Each polypeptide was reconstituted in tissue culture medium at the desired concentrations just prior to use.
(§1) Bone marrow cells were obtained from the femoral marrow. Both spleen and marrow cells were teased into single cell suspensions and washed three times in RPMI 1640 medium supplemented with 10 mM Hepes and 100 U/ml of penicillin and 100 μg/ml of streptomycin. The cells were then suspended in the same medium with 10% bovine serum at a concentration of 5.0×10^6 cells/ml. One milliliter of this suspension was incubated with an appropriate dilution of thymin in 16 mm plastic petrie dishes in a humidified atmosphere containing 5% CO2 in air. At the end of the incubation the cells were washed twice and held at 4° C. at a concentration of 5.0×10^6 cells/ml in culture medium until tested for the presence of TL or Thy-1(0).
ASL-1, a TL positive, Thy 1-2 (0-C3H) positive lymphoma of A strain mice was used as the target cell in all titrations of the antisera used in these experiments, and in the cytotoxic inhibition test to be described below. The lymophoma was maintained by weekly intraperitoneal passage in A/J mice. Lymphoma cells were labelled with Cr^51 and used as target cells in the cytotoxic inhibition test.
Antisera to either TL or Thy-1 (0) were titered to determine the quantity of antibody which was required to kill 50% of the target cells in a standard suspension. The appropriate amount of antiserum was added to each well of a microtiter plate with various dilutions of the cells being tested for their antigen content. The total volume was 0.15 ml. Cells expressing the antigen against which the antiserum was directed absorbed varying amounts of the antibody, and rendered less available to react with the Cr^51 labelled target cells which were added subsequently. The concentration of antibody used was extremely critical to the sensitivity of the test. The antisera to TL or Thy-1 (0) and the cells being tested for their antigen content were incubated together at 4° C. for 90 minutes. After this incubation 50,000 target cells in a volume of […] were added and the incubation continued in the cold for an additional 30 minutes to permit the sensitization of the target cells by the remaining unabsorbed antibody. The plates were then centrifuged at 1,500 rpm for 10 minutes and the supernatant fluid removed. The pelleted cells were resuspended in 0.1 ml or RPMI 1640, containing 4% fresh rabbit serum as a source of complement, and incubated for 45 minutes at 37° C. The cells were then repelleted by centrifugation and a 0.075 ml aliquot of the supernatant fluid was counted in an automatic gamma spectrometer to determine the amount of Cr^51 released from the target cells. All assays were performed in duplicate and the results were expressed by calculating the number of cells required to reduce the relative cytotoxic index (RCI) to 0.5. The RCI was calculated as follows: [formula]

spleen cells = assay: Direct cytotoxic test (trypan blue) for TL induction, spleen cells; assay type: cell-based, mouse; conditions: 20 ng/ml, 2 hours, least dense BSA gradient fraction
Protocol: as §1
(§2) Bone marrow and spleen cells were obtained by flotation in BSA gradients similar to those used by Komuro and Boyse (Lancet, 10, 39, 1964). These cells were tested for their susceptibility to anti TL and Thy-1(0) antibodies in a direct cytotoxicity test, using the uptake of trypan blue as a measure of cell death.
(§3) The actual number of cells induced could not be determined in the cytotoxic inhibition assay since this test is a measure of the total antigen present in the culture. […] However, unless sufficient numbers of such cells are present they cannot be detected because of a substantial background usually found in such tests. […]

bone marrow cells = assay: Direct cytotoxic test (trypan blue) for TL induction, bone marrow cells; assay type: cell-based, mouse
Protocol: as §1, §2, §3

[2] = single injection of 100 ng, mice

Sequence: SQFLEDPSVLTKEKLKSELVANNVTLPAGEQRKDVYVQLYLQTLTAVKR [Thymin II, H2 n--ser--gln--phe--leu--glu--asp--pro--ser--val--leu--thr--lys--glu--lys--leu--lys--ser--glu--leu--val--ala--asn--asn--val--thr--leu--pro--ala--gly--glu--gln--arg--lys--asp--val--tyr--val--gln--leu--tyr--leu--gln--thr--leu--thr--ala--val--lys--arg--cooh]
- activity of the isolated fraction in producing neuromuscular block [1]: active
- therapeutically effective amount [1]: at least 1.3 μg/kg of body weight
- dose producing a statistically significant (P < 0.001) decrement in the electromyographic response ([1]; mice): above 32 ng/mouse
- mean decrement: height of tenth muscle action potential as % of the first ([1]; mice): 82%
- dose range at which active [1]: about 0.1 mg/kg of body weight
- concentration of maximal activity (mouse bone marrow cells): 0.2-2 nanogram per mll
- lowest concentration at which active (mouse bone marrow cells): 20 picogram per mll
- absorption of antibodies directed against TL or Thy-1 by treated cells (mouse bone marrow cells): absorbed antibodies

Sequence: GQFLEDPSVLTKEKLKSELVANNVTLPAGEQRKDVYVQLYLQHLTAVKR [Thymin I, H2 n--gly--gln--phe--leu--glu--asp--pro--ser--val--leu--thr--lys--glu--lys--leu--lys--ser--glu--leu--val--ala--asn--asn--val--thr--leu--pro--ala--gly--glu--gln--arg--lys--asp--val--tyr--val--gln--leu--tyr--leu--gln--his--leu--thr--ala--val--lys--arg--cooh]
- spleen cells killed by anti TL antiserum plus complement (spleen cells): 18%
- activity of the isolated fraction in producing neuromuscular block [1]: active
- therapeutically effective amount [1]: at least 0.20 μg/kg of body weight
- relative activity on neuromuscular transmission ([1]; compared with Thymin II): slightly more active
- dose producing a statistically significant (P < 0.001) decrement in the electromyographic response ([1]; mice): above 4 ng/mouse
- mean decrement: height of tenth muscle action potential as % of the first ([1]; mice): 84%
- time at which the electromyogram abnormality was maximal [1, 2]: 24 h
- time through which the electromyogram abnormality persisted [1, 2]: 5 days
- time at which the electromyogram abnormality was first evident ([1]; single injection of 100 ng, mice, P < 0.001): 18 h
- dose range at which active [1]: about 0.1 mg/kg of body weight
- concentration of maximal activity (mouse bone marrow cells): 0.2-2 nanogram per mll
- lowest concentration at which active (mouse bone marrow cells): 20 picogram per mll
- concentration giving maximal induction of TL and Thy-1 antigens (mouse bone marrow cells; bone marrow cells): 2 ng/mL
- lowest concentration producing a measurable response (induction of TL and Thy-1 antigens) (mouse bone marrow cells; bone marrow cells): 20 pg/mL
- relative potency in inducing TL and Thy-1 antigens (mouse bone marrow cells; compared with Thymin II): slightly more potent
- absorption of antibodies directed against TL or Thy-1 by treated cells (mouse bone marrow cells): absorbed antibodies
- bone marrow cells killed by anti TL antiserum plus complement (bone marrow cells; 20 ng/ml, 2 hours, least dense BSA gradient fraction): 21%
- highest value of cells killed by anti TL antiserum plus complement (bone marrow cells; other experiments, tissue not stated): ≤ 28%
